Starred links: 1 amine or outer side, 2 acyl side, 3 side chain; linkers in the order of their positions; H or OH if unused. Positions of bridges follow the written chain, without caps; N, C: chain ends. Non-standard residues stand in square brackets, D forms with d. Residues, ends and D or L forms follow the SMILES beside them. Chains are numbered I, II in the order given. No end group written: not given here. Actinocin(9to1) = Cc1c2oc3c(C)ccc(C(=O)[*:1])c3nc-2c(C(=O)[*:2])c(N)c1=O; NMeV = CN[C@H](C(=O)O)C(C)C; Sar = CNCC(=O)O
How the values were obtained:
[1] = Absorption by gastrointestinal tract (earlier work); conditions: before digestion with papain
Description: (§1) Since alpha-lactalbumin is the major milk protein present in milk, this protein was first tested to determine if the bioactive peptides were derived from alpha-Lactalbumin. Purified alpha-lactalbumin was therefore treated with EDTA and zinc acetate.

[2] = system: various cancer cell lines; experiment: Apoptosis-inducing activity on various cancer cell lines (earlier work); assay type: cell-based
Description: Cow milk is known to contain numerous proteins and other beneficial compounds for humans.
as §1

[3] = Water solubility of the peptide; assay type: physicochemical; conditions: uncharged peptide
Description: The first peptide, listed as SEQ. ID NO. 1 in the accompanying sequence listing, has an amino acid sequence of E-Y-G-L-F-Q-I-S-N-K-L. This peptide, which is derived from natural human alpha-lactalbumin, will be referred to herein as “4H.” The second peptide, listed as SEQ. ID NO. […] This peptide has an amino acid sequence of E-Y-G-L-F-Q-I-S-N-K-K and will be referred to herein as “4H3.” Both these peptides were charged with zinc ions using the disclosed method to activate their apoptotic activities. Further, once these two peptides were charged with zinc ions, additional effects such as reducing Tau protein, increasing brain ATP levels and inhibiting P38 in the brain were observed, showing that these zinc-charged peptides further have a role in treating diseases involving tauopathy, such as Alzheimer's Disease and Parkinson's Disease.
Disclosed herein are two zinc-charged chemically synthesized peptides based upon the alpha-lactalbumin that are able to treat cancer and diseases involving tauopathy once activated by the disclosed method of charging the peptides with zinc ions. The first peptide, 4H, has an amino acid sequence of E-Y-G-L-F-Q-I-S-N-K-L (Seq. No. 1). The second peptide, 4H3, has an amino acid sequence of E-Y-G-L-F-Q-I-S-N-K-K (Seq. No. 2). […]

[4] = system: HT-29 colon cancer cells; experiment: Combination with chemotherapy drugs, apoptosis in HT-29; assay type: cell-based; conditions: for interaction of chemotherapy drug with zinc-charged peptide (apoptosis): drug 6 μg per ml 12 hours, then zinc-charged 4H 4 μM for 6 hours, HT-29
Protocol: To test this, HT-29 colon cancer cells were pre-incubated with various chemotherapy drugs at 6 μg per ml for 12 hours, then zinc-charged 4H at 4 μM was added for an additional 6 hours. Most chemotherapy drugs take up to 48 hours to see substantial apoptosis, and as such, the cells were pre-incubated with chemotherapy drugs first. The chemotherapy drugs tested included actinomycin (“A”), carmustine (“C”), docorubicin (“Dox”), genistin (“G”), 5-FU, and Tarceva.

[5] = biological target: T1, hexokinase II (Homo sapiens, UniProt P52789); experiment: Subcellular hexokinase II activity in HT-29; assay type: cell-based; conditions: HT-29, 1 μM, 5 hours
T1 sequence (P52789 1-917): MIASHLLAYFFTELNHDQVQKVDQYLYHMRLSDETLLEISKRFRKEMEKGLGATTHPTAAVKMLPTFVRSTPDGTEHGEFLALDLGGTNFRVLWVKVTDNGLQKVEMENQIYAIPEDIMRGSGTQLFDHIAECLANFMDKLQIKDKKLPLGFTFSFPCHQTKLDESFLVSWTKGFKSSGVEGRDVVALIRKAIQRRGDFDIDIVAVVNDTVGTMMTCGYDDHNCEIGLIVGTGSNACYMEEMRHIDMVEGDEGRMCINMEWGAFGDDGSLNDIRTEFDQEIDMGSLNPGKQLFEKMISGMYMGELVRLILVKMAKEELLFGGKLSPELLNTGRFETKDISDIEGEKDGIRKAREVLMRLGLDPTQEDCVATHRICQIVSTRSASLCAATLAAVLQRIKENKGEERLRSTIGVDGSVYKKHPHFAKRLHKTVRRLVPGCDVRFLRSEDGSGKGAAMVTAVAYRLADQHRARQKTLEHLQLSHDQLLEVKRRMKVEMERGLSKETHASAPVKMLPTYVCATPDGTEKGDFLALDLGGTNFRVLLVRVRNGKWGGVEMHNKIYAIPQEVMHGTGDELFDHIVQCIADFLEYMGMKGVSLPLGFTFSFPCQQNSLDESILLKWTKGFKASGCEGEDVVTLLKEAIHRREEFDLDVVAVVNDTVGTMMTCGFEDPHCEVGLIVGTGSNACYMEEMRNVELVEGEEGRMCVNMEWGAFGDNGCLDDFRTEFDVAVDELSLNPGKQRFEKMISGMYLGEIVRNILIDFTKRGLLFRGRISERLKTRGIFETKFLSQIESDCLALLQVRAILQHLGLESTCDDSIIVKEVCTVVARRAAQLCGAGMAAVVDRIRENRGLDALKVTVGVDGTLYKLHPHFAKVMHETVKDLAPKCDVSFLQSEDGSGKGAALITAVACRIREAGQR
Protocol: FIG. 14 is a bar graph depicting the subcellular hexokinase II activity in mitochondria, cytosol, and microsome of HT-29 cells incubated with the zinc-charged peptide (4H, 1 μM, for 5 hours) compared to a control of only the vehicle.
FIGS. 14-16 depicts the testing results validating that the zinc-charged peptides inhibit each of these three bioenergetic pathways. FIG. 14 depicts the subcellular hexokinase II activity in mitochondria, cytosol, and microsome to determine whether the zinc-charged peptides inhibit the hexokinase II activity in mitochondria. For this test, HT-29 cancer cells were incubated with zinc-charged 4H at 1 μM for 5 hours. After incubation, sub-cellular fractions including cytosol, microsome, and mitochondria were prepared and the hexokinase II activity on these sub-cellular fractions were tested.

[6] = system: normal WI38 lung cells; experiment: Glycolysis (lactate) in WI38 cell lysate; assay type: cell-based; conditions: WI38, FIG. 8b
Protocol: (§2) FIG. 8b is a bar graph depicting the level of glycolysis end product lactate in Calu-1 lung cancer cell lysate and of normal WI38 lung cell lysate after incubation with zinc-charged peptide 4H compared to a control of unincubated Calu-1 lung cancer cell lysate and unincubated normal WI38 lung cell lysate.
(§3) The zinc-charged peptides ability to inhibit glycolysis in other cancer cell lines, such as lung cancer, compared to their normal counterparts was also tested. […] To further study this observed phenomena in vivo, normal mice were fed with the zinc-charged 4H for five days, and the glycolysis of normal brain cells were studied. FIG. 9 depicts the results of this study. For this study, two groups of mice having four mice per group were compared, one being the control and the other being fed 0.5 mg of zinc-charged 4H per mouse per day for 5 days orally. After 5 days, brain and muscle tissue was collected, homogenized, and assayed for glycolysis rate.

[7] = system: brain tissue glycolysis; experiment: Brain glycolysis in normal mice after oral dosing; assay type: in vivo; conditions: 0.5 mg per mouse per day, 5 days
Protocol: FIG. 9a is a bar graph depicting the level of glycolysis in the brain tissue of normal mice (N=4) after the mice were orally administered the zinc-charged peptide (4H, 0.5 mg/mouse) for five days compared to a control.
as §3
(§4) In mice fed with 0.5 mg of zinc-charged 4H for 5 days, the brain glycolysis of these mice was enhanced by 44%.

[8] = system: Calu-1 lung cancer cells; experiment: Glycolysis (lactate) in Calu-1 cell lysate; assay type: cell-based; conditions: Calu-1, FIG. 8b
Protocol: as §2, §3

[9] = system: muscle tissue glycolysis; experiment: Muscle glycolysis in normal mice after oral dosing; assay type: in vivo; conditions: 0.5 mg per mouse per day, 5 days
Protocol: FIG. 9b is a bar graph depicting the level of glycolysis in the muscle tissue of normal mice after the mice were orally administered the zinc-charged peptide (4H, 0.5 mg/mouse) for five days compared to a control.
as §3, §4

[10] = system: brain ATP; experiment: Brain ATP level in mice after oral dosing; assay type: in vivo; conditions: 4H 0.5 mg per mouse per day, 5 days, normal mice
Protocol: FIG. 10 is a bar graph depicting the brain ATP level of normal mice after the mice were orally administered the zinc-charged peptide (4H, 0.5 mg/mouse) for five days compared to a control.
FIG. 11a is a bar graph depicting the brain ATP level of mice after the mice were orally administered the zinc-charged peptide (4H3, 1 mg/mouse) for five days compared to a control.
as §4
FIGS. 11a-d provide the graphical representations of these observations. FIG. 11a depicts the level of brain ATP in mice that were orally administered zinc-charged 4H3 compared to mice who were given the control. […] FIG. 11b depicts the level of brain Tau protein ATP in mice that were orally administered zinc-charged 4H3 compared to mice who were given the control. In this test, a 2.7 μg protein load was utilized. […] FIG. 11c depicts a retest of FIG. 11b, but with a lower protein load utilized instead. […] Lastly, FIG. 11d depicts the brain P38 MAPK levels in mice that were orally administered zinc-charged 4H3 compared to mice who were given the control. In this test, the mice given the zinc-charged 4H3 saw their brain P38 MAPK levels decrease by 61%.

[11] = system: HT-29 cancer cells; experiment: Intracellular glucose-6-phosphate in HT-29; assay type: cell-based; conditions: HT-29, 6 hours of incubation
Protocol: FIG. 6 is a bar graph depicting the level of intracellular Glucose-6-phosphate in HT-29 cancer cells after being incubated with the zinc-charged peptide 4H compared with a control.
(§5) To determine the mechanism of induction of apoptosis to HT-29 cancer cells by the zinc-charged peptides, a low concentration (1 μM) of zinc-charged 4H was incubated with HT-29 cancer cells, followed by biochemical analysis of the cell lysate of the HT-29 cancer cells.
(§6) Furthermore, the decreased lactate was associated with a lower ATP level and a lower Glucose-6-phosphate (G-6-P) level in HT-29 cells.

[12] = biological target: T1, hexokinase II; experiment: In vitro hexokinase II assay; assay type: biochemical
Protocol: To test confirm that the zinc-charged peptides inhibit hexokinase II resulting in the inhibition of glycolysis, an in vitro hexokinase II assay was performed. FIG. 7 depicts the results of the in vitro hexokinase II assay. In this test, it was observed that hexokinase II was inhibited by zinc-charged 4H in a dose-dependent manner. […] These findings confirm that the zinc-charged peptides inhibit glycolysis at the hexokinase II enzyme level.

[13] = system: HT-29 colon cancer cells; experiment: Glycolysis (lactate) in HT-29 cell lysate; assay type: cell-based
Protocol: as §5, §6, §3

[14] = system: normal colon cell line CCD18Co; experiment: Glycolysis (lactate) in CCD18Co cell lysate; assay type: cell-based; conditions: FIG. 8a
Protocol: FIG. 8a is a bar graph depicting the level of glycolysis end product lactate in HT-29 colon cancer cell lysate and of normal CCD18Co colon cell lysate after incubation with zinc-charged peptide 4H compared to a control of unincubated HT-29 cancer cell lysate and unincubated normal CCD18Co colon cell lysate.
as §3

zinc-bound alpha-lactalbumin: purified alpha-lactalbumin treated with EDTA and zinc acetate
absorption by gastrointestinal tract [1]: unable to be absorbed | apoptosis-inducing activity [2]: contain apoptosis-inducing activity

EYGLFQISNKK [4H3, E-Y-G-L-F-Q-I-S-N-K-K]
water solubility compared with 4H [3]: more water-soluble

E-Y-G-L-F-Q-I-S-N-K-L (EYGLFQISNKL; also: charged with zinc ions) [zinc-charged 4H, ID NO; 1 peptide derived from human alpha-lactalbumin, charged with zinc ions]
percentage of apoptosis in HT-29 after adding zinc-charged 4H to chemotherapy drugs ([4]; 4 μM for 6 hours after 12 hours drug pre-incubation): significantly increased | mitochondria associated hexokinase II activity inhibited [5]: 53% | glycolysis inhibition [6]: 0% | brain glycolysis enhanced [7]: 44% | glycolysis inhibited [8]: 11.1% | muscle glycolysis increased [9]: 15% | increase in brain ATP level [10]: 31.4% | reduction of intracellular G-6-P level [11]: 39.6% | hexokinase II inhibited ([12]; 5 μM): 28.6% | hexokinase II inhibited ([12]; 10 μM): 79.1% | hexokinase II inhibited ([12]; 20 µM): 94.6% | lactate lower than control cells ([13]; 1 μM, HT-29 lysate, FIG. 4): 81.4% | glycolysis inhibited ([13]; HT-29, FIG. 8a): up to 34.7% | glycolysis inhibited [14]: 10.5%

Cc1c2oc3c(C)ccc(C(=O)N[C@@H]4C(=O)N[C@H](C(C)C)C(=O)N5CCC[C@H]5C(=O)N(C)CC(=O)N(C)[C@@H](C(C)C)C(=O)O[C@@H]4C)c3nc-2c(C(=O)N[C@@H]2C(=O)N[C@H](C(C)C)C(=O)N3CCC[C@H]3C(=O)N(C)CC(=O)N(C)[C@@H](C(C)C)C(=O)O[C@@H]2C)c(N)c1=O [actinomycin] (I: T[dV]P[Sar][NMeV] / II: T[dV]P[Sar][NMeV]; ester I:1-I:C, II:1-II:C; linker I:N-II:N via Actinocin(9to1))
interaction of chemotherapy drug with zinc-charged peptide (apoptosis) [4]: synergistic

O=c1[nH]cc(F)c(=O)[nH]1 [5-FU]
interaction of chemotherapy drug with zinc-charged peptide (apoptosis) [4]: synergistic

COc1cccc2c1C(=O)c1c(O)c3c(c(O)c1C2=O)C[C@@](O)(C(=O)CO)C[C@@H]3O[C@H]1C[C@H](N)[C@H](O)[C@H](C)O1 [doxorubicin]
interaction of chemotherapy drug with zinc-charged peptide (apoptosis) [4]: synergistic

O=NN(CCCl)C(=O)NCCCl [carmustine]
interaction of chemotherapy drug with zinc-charged peptide (apoptosis) [4]: synergistic

O=c1c(-c2ccc(O)cc2)coc2cc(O[C@@H]3O[C@H](CO)[C@@H](O)[C@H](O)[C@H]3O)cc(O)c12 [genistin]
interaction of chemotherapy drug with zinc-charged peptide (apoptosis) [4]: synergistic

From patent US12065470B2, “Zinc-charged peptides for the treatment of cancer and alzheimer's disease” (priority 2022, dated 2024)
